From patent US7476729B2, “Dbait and uses thereof” (Institut Curie, priority 2003, dated 2009)

What was measured:
Hela cells = assay: Clonogenic survival assay of Hela cells after 4×0.5 Gy irradiation; format: cell-based, human; conditions: 4×0.5 Gy spaced 2 hours, Dbait transfected with Superfect (83 nM or 2 μg)
Experimental: (§1) Exponentially growing cells in six-well plates were harvested and incubated with […] of complete DMEM containing a mixture of Dbait molecules and Superfect reagent (Qiagen, Courtaboeuf, France) in a ratio of 10 μl Superfect per μg DNA. After 5 h at 37° C. under standard conditions, the cells were washed with PBS and complete DMEM was added. Where indicated, cells were exposed to irradiation either in one session (10 Gy) 5 h after the beginning of transfection or in four sessions of 0.5 Gy administered with a ^137Cs unit (1 Gy/min) 3, 4, 5 and 6 h after the beginning of transfection and allowed to grow for two weeks. When plasmid integration was measured, 2 μg of plasmid was added to Dbait transfection and puromycin (1.7 μg/ml) was added to the growth medium 48 h after transfection. Plasmid transfection efficiency was estimated by analyzing 10,000 cells for GFP expression on a FACScan flow cytometer (FACSalibur, Beckton-Dickinson, USA).
Upon 8 hours transfection of Dbait molecules in Hela cells and four irradiation with 0.5 Gy fractionated irradiation spaced 2 hours (4×0.5 Gy), performed with γ-rays from a ^137Cs source, a significant reduction of clonogenic survival was observed as compared to untransfected cells. The results are given on FIG. 2.1 wherein Panel A gives the dose-dependence of normalized survival clone number in the presence of Dbait32 (SEQ ID NO: 1) and Dbait32H (SEQ ID NO: 1), and Panel B, the normalized survival clone number in the presence of different Dbait molecules at 83 nM (concentration in culture medium). Cell culture was in MEM supplemented with 10% serum. Superfect (Qiagene) was used as transfection agent according to the manufacturer's instruction.
Clonogenic survival was estimated as the number of treated cells forming colonies on the number of untreated cells.

DNA-PK = target: T1, DNA-PK (Homo sapiens, UniProt P12956+P13010+P78527); assay: DNA-dependent protein kinase (DNA-PK) activity assay in Hep2 nuclear extract; format: biochemical; conditions: 2 μg Dbait, 1.5 μg Hep2 nuclear protein extract
T1 construct: Increasing amounts of Hep2 nuclear extract (cleaned of endogenous DNA by DEAE-Sepharose filtration) were assayed; endogenous in cells; host or cells: Hep2 cells (nuclear extract, DNA removed by DEAE-Sepharose filtration)
Experimental: (§2) DNA-PK activity was monitored using the kit SignaTECT DNA-dependent Protein Kinase Assay System (Promega, Madison, USA). Increasing amounts of Hep2 nuclear extract (cleaned of endogenous DNA by DEAE-Sepharose filtration) were assayed in the presence of 250 nM Dbait. Extract, biotinylated peptide substrate and various amount of nuclear extract were incubated 5 minutes at 30° C. with (γ-^32P)ATP according to manufacturer indications. The biotinylated substrate was capture on streptavidine membrane, washed and counted in a scintillation counter. Percentage of phosphorylation is calculated by dividing the bound radioactivity by the total count of (γ-^32P)ATP per sample. Reactions (10 μl) were carried out in 60 mM KOAc, 100 μg/ml BSA, 0.5 mM Mg(Cl)2, 1 μl T4 DNA ligase 10× buffer (Promega, Madison, USA). Nuclear extract and Dbait were incubated 2 minutes before addition of ^32P-labeled DNA (10 ng). Samples were incubated various time at 37° C. before ligation being stopped by 20 mM EDTA and 1 mg/ml Proteinase K addition. Ligation products were analyzed by electrophoresis through 0.7% agarose gels followed by autoradiography and quantification by phosphorimaging.
The kinase activity depended directly on the length and structure of the double-stranded ‘stem’ of the Dbait molecule. […] In addition, various backbone modifications (phosphothioate, methyphosphonate, 3′-3′ linkage) at the free blunt end (up to 3-bp), as well as the internally tagged ligands (e.g. fluorescent dyes), are capable of activating DNA-PK activity.

Ku complex = target: T2, Ku complex (Homo sapiens, UniProt P12956+P13010); assay: Band-shift assay with Hep2 nuclear protein extracts; format: binding; conditions: for retarded bands in band-shift assay: 10 nM 32P radio-labelled Dbait, 0-320 ng/μL Hep2 nuclear proteins, 30° C., 10 minutes
T2 construct: in the presence of nuclear protein extracts from Hep2 cells according to standard protocol; endogenous in cells; host or cells: Hep2 cells (nuclear protein extract)
T2 sequence (P12956 whole entry): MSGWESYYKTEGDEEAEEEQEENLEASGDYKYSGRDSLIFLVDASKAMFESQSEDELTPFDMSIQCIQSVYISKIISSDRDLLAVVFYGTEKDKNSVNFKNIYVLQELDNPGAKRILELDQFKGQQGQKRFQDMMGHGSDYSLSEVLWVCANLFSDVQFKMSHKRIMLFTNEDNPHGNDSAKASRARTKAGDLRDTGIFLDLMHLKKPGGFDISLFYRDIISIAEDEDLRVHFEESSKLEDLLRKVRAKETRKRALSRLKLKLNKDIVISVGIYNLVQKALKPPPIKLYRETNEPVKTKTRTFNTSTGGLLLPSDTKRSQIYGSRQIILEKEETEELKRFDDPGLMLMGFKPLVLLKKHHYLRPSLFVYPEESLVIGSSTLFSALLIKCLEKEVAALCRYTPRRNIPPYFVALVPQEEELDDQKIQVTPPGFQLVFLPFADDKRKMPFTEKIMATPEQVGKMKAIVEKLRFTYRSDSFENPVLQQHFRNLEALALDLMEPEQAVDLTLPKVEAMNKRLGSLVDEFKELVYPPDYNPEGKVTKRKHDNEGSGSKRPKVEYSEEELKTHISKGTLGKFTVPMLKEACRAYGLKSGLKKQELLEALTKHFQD
T2 sequence (P13010 whole entry): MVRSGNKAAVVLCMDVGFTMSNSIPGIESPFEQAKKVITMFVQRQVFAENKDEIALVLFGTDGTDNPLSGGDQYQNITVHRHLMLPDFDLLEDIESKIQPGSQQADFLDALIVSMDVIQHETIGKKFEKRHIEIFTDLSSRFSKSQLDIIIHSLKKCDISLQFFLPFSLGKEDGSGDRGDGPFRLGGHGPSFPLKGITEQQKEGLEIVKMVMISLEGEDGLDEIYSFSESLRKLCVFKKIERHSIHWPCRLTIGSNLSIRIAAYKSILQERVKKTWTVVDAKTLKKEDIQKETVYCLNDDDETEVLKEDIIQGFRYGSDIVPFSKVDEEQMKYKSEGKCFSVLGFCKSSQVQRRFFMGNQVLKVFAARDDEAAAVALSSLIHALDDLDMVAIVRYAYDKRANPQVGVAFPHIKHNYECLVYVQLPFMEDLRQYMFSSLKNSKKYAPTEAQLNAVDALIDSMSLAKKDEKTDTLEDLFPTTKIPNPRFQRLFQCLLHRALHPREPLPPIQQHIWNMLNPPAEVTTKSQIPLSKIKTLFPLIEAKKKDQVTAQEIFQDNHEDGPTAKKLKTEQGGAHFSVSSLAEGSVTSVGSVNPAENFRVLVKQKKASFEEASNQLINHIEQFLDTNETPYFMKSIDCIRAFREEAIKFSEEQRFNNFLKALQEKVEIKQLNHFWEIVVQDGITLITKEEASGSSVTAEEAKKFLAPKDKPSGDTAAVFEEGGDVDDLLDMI
Experimental: As the first step to dissect the mechanism of action of Dbait molecules, a series of band-shift assays were carried out with different ^32P radio-labelled Dbait molecules in the presence of nuclear protein extracts from Hep2 cells according to standard protocol. Typically, 10 nM ^32P radio-labelled Dbait molecules were incubated in the presence of various concentrations of nuclear proteins (0, 10, 20, 40, 80, 160, and 320 ng/μL) at 30° C. for 10 minutes in TBE buffer. Then the samples were loaded on a 5% acrylamide native gel. The electrophoresis was run at 95V for 2 hours at 4° C. The gel was dried and scanned by phosphorimager (Molecular Dynamics).
For 32-bp Dbait molecules, the intensity of the retarded band 1 increases and then decreases as the concentration of protein increases, while the intensity of the retarded band 2 increases as a function of the concentration of nuclear protein extracts.
It is likely that band 1 has one Ku70/80 complex bound to the 16 to 32-bp Dbait, whereas the band 2 has two Ku70/80 complexes bound to the 32-bp Dbait molecules. Control experiments performed with purified Ku proteins confirmed this interpretation.

[1] = tested on: DNA end-joining reaction in the nuclear extracts of Hep2 cells; assay: DNA end-joining assay in Hep2 nuclear extract; format: biochemical, human; conditions: 2 h incubation with various Dbait
Experimental: DNA end-joining was monitored by incubating ^32P-labeled 605-bp linear DNA fragments with Hep2 nuclear extract in the presence of various Dbait molecules. Ligation products migrate as dimers, trimers or tetramers, starting 605 bp monomer.
Approximately 16% of the ^32P-labeled blunt linear duplex DNA molecules were ligated into dimers and trimers during the first 2 h of incubation. The amount of high molecular weight ligation products increased up to 30% of the total input DNA after 16 h. […] In most experiments, Dbait32H (SEQ ID NO: 1) was added simultaneously with the labeled DNA fragments to the nuclear extract.
Various Dbait molecules were tested for their effect on the cell-free assay by adding the molecules to nuclear extract and incubating for 2 h with the DNA fragments.
as §2

[2] = tested on: radiation-enhanced illegitimate integration of a plasmid in Hela cells; assay: Inhibition of radiation-enhanced illegitimate integration of exogenous DNA; format: cell-based, human; conditions: 2 μg Dbait, fractionated 4×0.5 Gy irradiation
Experimental: as §1
Ionizing radiation is known to improve illegitimate integration of exogenous DNA, a process termed radiation-enhanced integration. Hela cell culture was used for this assay. Cells were transfected during 8 hours by 2 μg of a linear plasmid carrying the gene coding for neomycin resistance, and three different ratio of DNA/superfect (1:2, 1:5, 1:10). During transfection time, the cells were exposed to different irradiation protocols: no irradiation, one single irradiation of 1 Gy and 2 Gy, as well as a 2 Gy irradiation delivered by fractionated doses of 0.5 Gy every 2 hours (4×0.5 Gy). The integration of the plasmid was monitored by selection of Neo^R cells growing in a medium containing 0.6 mg/ml of G418. […] When 2 μg of Dbait32H (SEQ ID NO: 1) molecules were added to the transfection mix, the radiation-enhanced integration was abolished (FIG. 2.3).
Wortmann (Wort) and NU7026 (NU) which are known inhibitors of PI3K (including DNA-PK) were used as control.

| Substance | clonogenic survival (Hela cells) | retarded bands in band-shift assay (Ku complex) | ligation of DNA fragments in cell-free assay [1] | also measured |
| --- | --- | --- | --- | --- |
| 5′ACGCACGGGTGTTGGGTCGTTTGTTCGGATCT ACGCACGGTCGTTTGTTCGGTGTTGGCGATCT3′ [Dbait64L] | significantly reduced clonogenic survival | – | – | – |
| 5′ACGCACGGGTGTTGGGTCGTTTGTTCGGATCTACGCACGGTCGTTTGTTCGGTGTTGGCGATCT3′ [Dbait64] | significantly reduced clonogenic survival | – | – | – |
| Dbait24H: hairpin double strand DNA with a stem of 24-bp (DNA ACGCACGGGTGTTGGGTCGTTTGT; DNA, backbone not given here; hairpin DNA with hexaethyleneglycol loop, 3-bp phosphorothioate at free blunt end) | significantly reduced clonogenic survival | One retarded band | inhibited the ligation as efficiently as Dbait32H | DNA-PK activation (kinase activity) (DNA-PK): inefficient; binding of Ku (Ku complex; Hep2 nuclear extract, band-shift): bound only one Ku dimer |
| Dbait32-T4: contains four thymines (T4) as a linker instead of a hexaethyleneglycol linker (DNA ACGCACGGGTGTTGGGTCGTTTGTTCGGATCT; DNA, backbone not given here; hairpin DNA with four-thymine loop, 3-bp phosphorothioate at free blunt end) | significantly reduced clonogenic survival | – | – | – |
| Dbait32C: dumbbell 32-bp double strand DNA (without free blunt end) (DNA ACGCACGGGTGTTGGGTCGTTTGTTCGGATCT; DNA, backbone not given here; dumbbell duplex DNA, both ends closed by hexaethyleneglycol loops) | – | – | largely unaffected | radiation-enhanced illegitimate integration of plasmid (puromycin resistance) [2]: not effective |
| Dbait32H-po: full length phosphodiester Dbait32H (DNA ACGCACGGGTGTTGGGTCGTTTGTTCGGATCT; DNA, phosphodiester; hairpin DNA closed by hexaethyleneglycol loop) | – | two retarded band | – | – |
